Results published in patent publication US20040166508A1, “Analytical platform and detection method with the analytes to be determined in a sample as immobilized specific binding partners, optionally after fractionation of said sample” (priority 2002, published 2004).

Tested on: pErk2 (Phospho-p44/42 MAP kinase (Thr202/Tyr204))
Assay: Detection of pErk2 (phospho-p44/42 MAP kinase) in immobilized Jurkat cell lysates (antibody A3)
Format: cell-based, human
Settings: Jurkat cells treated with 10 μM for 180 min
Protocol: Human T-cell cultures (Jurkat, DMZ # ACC282) are utilized for the detection of biologically relevant protein analytes in “immobilization samples”. These cells are cultivated at 37° C. in a solution containing RPMI 1640, 10% FCS (fetal calf serum), 2 mM glutamine, 50 U/ml penicillin, 50 μg/ml streptamycine (cell density at about 0.5×10^6-1.0×10^6 cells/ml). […] A cell culture, which is similar to the one described above but not treated with antibodies, is used as a comparison sample and shall serve as a negative control in the analytical detection method. […] The cells here are simply separated from the medium, without damage to the cells. The supernatant is then decanted, and lysis buffer (7 M urea, 2 M thiourea, 4% CHAPS, 1% DTT, 4 mM spermidine and Complete (protease inhibitor, Roche AG, 1 tablet/50 ml) is added, the total protein concentration being adjusted to about 10 mg/ml. Thereby, all protein-containing cell components are denatured spontaneously and completely and solubilized. The samples obtained by the preparation steps described above are again diluted by a factor of 10 to a total protein concentration of about 1 mg/ml, and are then deposited in discrete measurement areas for generating an array of measurement areas on the evanescent field sensor platform provided with the adhesion-promoting layer. […]

## CN[C@@H]1C[C@H]2O[C@@](C)([C@@H]1OC)n1c3ccccc3c3c4c(c5c6ccccc6n2c5c31)C(=O)NC4 [staurosporin, staurosporine]
  pErk2 signal of the nonstimulated control sample compared with the treated sample: only slightly higher
